Experimental data from patent publication US10294202B2, “Pyrrolidinones as herbicides” (FMC Corporation, priority 2013, dated 2019).

Key:
[1] = test system: galium; test: Test C pre-/postemergence herbicide test; format: in vivo, Galium aparine; conditions: Preemergence; for Plant response rating (scale of 0 to 100), Galium: 250 g ai/ha
Text: (§1) Seeds of plant species selected from blackgrass (Alopecurus myosuroides), ryegrass, Italian (Italian ryegrass, Lolium multiflorum), wheat (winter wheat, Triticum aestivum), galium (catchweed bedstraw, Galium aparine), corn (Zea mays), crabgrass, large (large crabgrass, Digitaria sanguinalis), foxtail, giant (giant foxtail, Setaria faberii), johnsongrass (Sorghum halepense), lambsquarters (Chenopodium album), morningglory (Ipomoea coccinea), nutsedge, yellow (yellow nutsedge, Cyperus esculentus), pigweed (Amaranthus retroflexus), ragweed (common ragweed, Ambrosia elatior), soybean (Glycine max), barnyardgrass (Echinochloa crus-galli), oilseed rape (Brassica napus), waterhemp (common waterhemp, Amaranthus rudis), kochia (Kochia scoparia), oat, wild (wild oat, Avena fatua), surinam grass (Brachiaria decumbens), foxtail, green (green foxtail, Setaria viridis), goosegrass (Eleusine indica), bromegrass, downy (downy bromegrass, Bromus tectorum), nightshade (eastern black nightshade, Solanum ptycanthum), cocklebur (common cocklebur, Xanthium strumarium), cupgrass, woolly (woolly cupgrass, Eriochloa villosa), bermudagrass (Cynodon dactylon), sunflower, (common oilseed sunflower, Helianthus annuus), Russian thistle (Salsola kali) and velvetleaf (Abutilon theophrasti) were planted into a blend of loam soil and sand and treated preemergence with test chemicals formulated in a non-phytotoxic solvent mixture which included a surfactant. At the same time, plants selected from these crop and weed species and also barley (winter barley, Hordeum vulgare), […]), chickweed (common chickweed, Stellaria media), deadnettle (henbit deadnettle, Lamium amplexicaule), and canarygrass (littleseed canarygrass, Phalaris minor) were planted in pots containing Redi-Earth® planting medium (Scotts Company, 14111 Scottslawn Road, Marysville, Ohio 43041) comprising spaghnum peat moss, vermiculite, wetting agent and starter nutrients and treated with postemergence applications of test chemicals formulated in the same manner. Plants ranged in height from 2 to 18 cm (1- to 4-leaf stage) for postemergence treatments. Treated plants and controls were maintained in a greenhouse for 13 to 15 days, after which time all species were compared to controls and visually evaluated. Plant response ratings, summarized in Table C, are based on a scale of 0 to 100 where 0 is no effect and 100 is complete control. A dash (-) response means no test result.

[2] = test system: velvetleaf; test: Test C pre-/postemergence herbicide test; format: in vivo, Abutilon theophrasti; conditions: Preemergence; for Plant response rating (scale of 0 to 100), Velvetleaf: 250 g ai/ha
Text: as §1

[3] = test system: blackgrass; test: Test A postemergence herbicide test; format: in vivo, Alopecurus myosuroides
Procedure, shortened: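 Ratings compare treated with untreated plants roughly 10 days after a postemergence application made at the one- to two-leaf stage. Scoring uses 0–100, where 0 means no effect and 100 complete control.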

[4] = test system: foxtail, giant; test: Test C pre-/postemergence herbicide test; format: in vivo, Setaria faberii; conditions: Preemergence; for Plant response rating (scale of 0 to 100), Foxtail, Giant: 250 g ai/ha
Text: as §1

[5] = test system: barnyardgrass; test: Test C pre-/postemergence herbicide test; format: in vivo, Echinochloa crus-galli; conditions: Preemergence; for Plant response rating (scale of 0 to 100; 0 is no effect, 100 is complete control), Barnyardgrass: 250 g ai/ha
Text: as §1

[6] = test system: blackgrass; test: Test C pre-/postemergence herbicide test; format: in vivo, Alopecurus myosuroides; conditions: Preemergence; for Plant response rating (scale of 0 to 100), Blackgrass: 250 g ai/ha
Text: as §1

[7] = 31 g ai/ha, scale 0 to 100, 0 is no effect and 100 is complete control
[8] = 62 g ai/ha, scale 0 to 100 (0 no effect, 100 complete control)
[9] = 125 g ai/ha, scale 0 to 100 (0 no effect, 100 complete control)
[10] = 125 g ai/ha, 0 to 100 scale, 0 is no effect, 100 is complete control
[11] = 500 g ai/ha, 0 to 100 scale (0 no effect, 100 complete control)

Structure (SMILES) | Galium plant response rating [1, 7] | Galium plant response rating [1, 8] | Plant response rating, Galium [1, 9] | Plant response rating (scale of 0 to 100), Galium [1] | Velvetleaf plant response rating [2, 7] | Velvetleaf plant response rating [2, 8] | Plant response rating, Velvetleaf [2, 9] | Plant response rating (scale of 0 to 100), Velvetleaf [2] | Plant response rating, Blackgrass [3, 10] | Plant response rating, Blackgrass [3, 11] | Foxtail, Giant plant response rating [4, 7] | Foxtail, Giant plant response rating [4, 8] | Plant response rating, Foxtail, Giant [4, 9] | Plant response rating (scale of 0 to 100), Foxtail, Giant [4] | Barnyardgrass plant response rating [5, 7] | Barnyardgrass plant response rating [5, 8] | Plant response rating, Barnyardgrass [5, 9] | Plant response rating (scale of 0 to 100; 0 is no effect, 100 is complete control), Barnyardgrass [5] | Blackgrass plant response rating [6, 7] | Plant response rating (scale of 0 to 100), Blackgrass [6] | other results
O=C1NCC(c2cc(F)cc(F)c2)C1C(=O)Nc1ccccc1Cl (racemic) [Compound 280] | 0 | 0 | 0 | 85 | 0 | 0 | 0 | 10 | 0 | 0 | 70 | 80 | 90 | 95 | 55 | 65 | 85 | 95 | 0 | 0 | Blackgrass plant response rating [6, 8]: 0; Plant response rating, Blackgrass [6, 9]: 0
O=C1NCC(c2ccc(OC(F)F)cc2)C1C(=O)Nc1cccc(F)c1F (racemic) [Compound 350] | – | 85 | – | 90 | – | 0 | – | – | – | 50 | – | 90 | – | 90 | – | 90 | 90 | 90 | – | 55 | Plant response rating, Galium ([1]; 125 g ai/ha, scale 0 to 100): 90; Plant response rating, Galium ([1]; 31 g ai/ha, scale 0 to 100): 30; Plant response rating, Velvetleaf ([2]; 125 g ai/ha, scale 0 to 100): 0; Plant response rating, Velvetleaf ([2]; 31 g ai/ha, scale 0 to 100): 0; Plant response rating, Blackgrass ([3]; 125 g ai/ha, visual rating on 0 to 100 scale (0 no effect, 100 complete control), approx. 10 days): 50; Plant response rating, Foxtail, Giant ([4]; 125 g ai/ha, scale 0 to 100): 90; Plant response rating, Foxtail, Giant ([4]; 31 g ai/ha, scale 0 to 100): 85; Plant response rating, Barnyardgrass ([5]; 31 g ai/ha, scale 0 to 100): 75; Blackgrass plant response rating [6, 8]: 0; Plant response rating, Blackgrass ([6]; 125 g ai/ha, scale 0 to 100): 50; Plant response rating, Blackgrass ([6]; 31 g ai/ha, scale 0 to 100): 0
O=C1NCC(c2ccc(Cl)cc2)C1C(=O)Nc1cccc(F)c1F (centres unmarked) [Compound 218] | 0 | 0 | 85 | 90 | 0 | 0 | 15 | 40 | 20 | – | 85 | 90 | 90 | 95 | 80 | – | 95 | 95 | 0 | 80 | Blackgrass plant response rating (0 to 100 scale, 0 is no effect, 100 is complete control) ([3]; 500 g ai/ha): 40; Plant response rating, Barnyardgrass ([5]; 62 g ai/ha, scale 0 to 100): 90; Plant response rating, Blackgrass ([6]; 62 g ai/ha, scale 0 to 100): 10; Plant response rating, Blackgrass [6, 9]: 50
